In patent US20170029355A1, “LABILE ESTERS OF AGROCHEMICALS FOR CONTROLLED RELEASE AND REDUCTION OF OFF-SITE MOVEMENT” (Monsanto Technology LLC, priority 2011, published 2017):

Columns and labels:
[1] = In vitro dicamba photo-release from photo-labile dicamba esters, tetrahydrofuran solvent (Example 26); type: physicochemical; conditions: THF, 0.1 mM ester; for Dark Control % dicamba: initial solution kept away from the light source, analyzed at conclusion of study
How it was run: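 Esters at 0.1 mM in THF, sealed in quartz tubes and exposed to simulated sunlight 14 h per day at 35 °C. Dicamba released was measured over the photolysis, with an unilluminated sample of the starting solution serving as dark control.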

broadleaf weeds = test: Control of broadleaf weeds by ester concentrates (statements of the description); type: in vivo; conditions: for control of a number of broadleaf weeds in field testing, in words: emulsifiable and suspension concentrates, Sesbania macrocarpa, morning glory, velvetleaf, Palmer amaranth, fat hen, sicklepod
[2] = test system: glyphosate-tolerant, dicamba-sensitive soy plants; test: Humidome volatility injury to dicamba-sensitive plants (Example 31); conditions: assessed after three weeks in greenhouse; for % Injury: soy plants 24 hours in closed humidome over sprayed soil (0.5% dicamba equivalent + 1.5% glyphosate), 35° C.; for Growth Stage: soy plants 24 hours in closed humidome over sprayed soil
From the text: In this case, the diglycolamine salt of dicamba (CLARITY®) was used for comparison.
Dicamba photo-labile ester formulations from Example 28 were mixed with a commercial glyphosate formulation (ROUNDUP POWERMAX®) and diluted to provide a solution with a 0.5% dicamba equivalent concentrate of the ester (or dicamba diglycolamine salt) and 1.5% concentrate of glyphosate. The mixtures were sprayed at a 10 gallon per acre (93.5 liters per hectare) rate on soil in a plastic container (“humidome”) with a transparent lid. One soil container was sprayed with water as a control. Four glyphosate-tolerant, dicamba-sensitive soy plants between V2 and V3 stage were immediately placed on the sprayed soil and the domes attached to the trays with binder clips. The soy plants were in pots placed directly on the soil but with aluminum foil wrapped around the bottom to prevent uptake of dicamba or dicamba esters through the roots.
The closed containers were held for 24 hours in a growth chamber which was maintained at 35° C. with 40% relative humidity. The plants were then removed and grown in a greenhouse for three weeks. At this time plant injury and growth stage were assessed compared to the control treated with water only.

hemp sesbania = test: Field testing of emulsifiable concentrates, post-emergent control (Example 38); type: in vivo; conditions: for post-emergent control of hemp sesbania compared with the dicamba salt, in words: 280 and 420 g dicamba acid equivalent per hectare; for % control, 280 g/ha, Hemp sesbania: 280 g dicamba acid equivalent per hectare; for % control, 280 g/ha, Hemp sesbania / % control, 420 g/ha, Hemp sesbania: 11 or 21 days after treatment; for % control, 420 g/ha, Hemp sesbania: 420 g dicamba acid equivalent per hectare
From the text: (§1) Four dicamba esters, 1a, 2, 9, and 13a, were formulated as emulsifiable concentrates for field testing. All formulations contained 5% each of a alkylbenzene sulfonate calcium salt (Huntsman NANSA EVM 62/H or Akzo Nobel WITCONATE P-1220 EH) and castor oil ethoxylate (Huntsman SURFONIC CO-54) as the emulsifiers and Aromatic 200 (Exxon) or monochlorobenzene (MCB) as the solvent.
(§2) The esters were compared to the diglycolamine salt of dicamba (CLARITY™) for post-emergent control of three broadleaf weeds: velvetleaf, morning glory, and hemp sesbania. Rates of 280 and 420 g dicamba acid equivalent per hectare were used. […] Evaluations were conducted at 11 or 21 days after treatment. Locations and timing were identical for all formulations tested.

morning glory = test: as above; type: in vivo; conditions: for post-emergent control of morning glory compared with the dicamba salt, in words: 280 and 420 g dicamba acid equivalent per hectare; for % control, 280 g/ha, Morning glory: 280 g dicamba acid equivalent per hectare; for % control, 280 g/ha, Morning glory / % control, 420 g/ha, Morning glory: 11 or 21 days after treatment; for % control, 420 g/ha, Morning glory: 420 g dicamba acid equivalent per hectare
From the text: as §1, §2

velvetleaf [3] = test: as above; type: in vivo; conditions: for post-emergent control of velvetleaf compared with the dicamba salt, in words: 280 and 420 g dicamba acid equivalent per hectare; for % control, 280 g/ha, Velvetleaf: 280 g dicamba acid equivalent per hectare; for % control, 280 g/ha, Velvetleaf / % control, 420 g/ha, Velvetleaf: 11 or 21 days after treatment; for % control, 420 g/ha, Velvetleaf: 420 g dicamba acid equivalent per hectare
From the text: as §1, §2

velvetleaf [4] = test: Greenhouse post-emergent control of velvetleaf by emulsifiable concentrates (Example 29); type: in vivo; conditions: three weeks after treatment
How it was run: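 Greenhouse velvetleaf 10–15 cm tall sprayed post-emergence with photo-labile ester emulsifiable concentrates at 140, 280, 420 and 560 g dicamba equivalent/ha, alongside dicamba diglycolamine salt at the same rates and untreated plants. Percent control scored three weeks after treatment.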

Euphorbia species = test: Field testing for post-emergent activity in the Southern Hemisphere (Example 39); type: in vivo; conditions: 9 as suspension concentrate, other esters as emulsifiable concentrates; for % control, 0.25 lb/ac (0.28 kg/hectare): 0.25 lb dicamba a.e. per acre; for % control, 0.50 lb/ac (0.56 kg/hectare): 0.50 lb dicamba a.e. per acre
Description: The primary weeds were Euphorbia species. Ester 9 was tested as a suspension concentrate using the formulation of Example 33 The other esters were tested as emulsifiable concentrates having the formulations shown in the table below. Akzo Nobel SPONTO EC 334 and SPONTO EC 336 along with SURFONIC CO-54 and […] (Huntsman) were used as emulsifiers and Aromatic 200 (A 200; Exxon) was used as the solvent. […] The diglycolamine salt of dicamba (CLARITYTM) was used as a comparator.

[5] = In vitro photo-release and hydrolytic release of dicamba in an aqueous medium (Example 35); type: physicochemical; conditions: 0.01 mM ester, 35° C.
Description: This Example describes the determination of photo-lability and hydrolytic lability of dicamba esters in an aqueous medium. 1 mM solutions of the esters were prepared in acetonitrile (or […] solutions of dicamba diesters). The solutions were then diluted with deionized water to a concentration of 0.01 mM (or 0.005 mM for diesters). The solutions were then transferred to quartz tubes and amber bottles and held in a growth chamber by the procedure of Example 26. A 14-hour day was generally used at a constant temperature of 35° C. Hydrolytic activity was assessed by measuring the increase in dicamba concentration after day zero in the amber (dark) bottles. […] Photolysis manifested itself as increased conversion in the quartz tubes compared to the dark control.

[6] = simulated sunlight 14 hours per day, 35° C.

COc1c(Cl)ccc(Cl)c1C(=O)OCc1ccccc1[N+](=O)[O-] [Ester 1a, 2-Nitrobenzyl Ester of Dicamba]
Dark Control % dicamba [1]: 1% | Conversion to dicamba, 1 day [1, 6]: 22% | Conversion to dicamba, 2 days [1, 6]: 33% | Conversion to dicamba, 3 days [1, 6]: 47% | Conversion to dicamba, 5 days [1, 6]: 66% | Conversion to dicamba, 7 days [1, 6]: 76% | control of a number of broadleaf weeds in field testing, in words (broadleaf weeds): proven effective | field efficacy for control of broadleaf weeds compared with the diglycolamine salt of dicamba, in words (broadleaf weeds; field tests of emulsifiable concentrates): slightly more effective than the diglycolamine salt of dicamba | % Injury [2]: 8% | Growth Stage [2]: 8 | post-emergent control of hemp sesbania compared with the dicamba salt, in words (hemp sesbania): equivalent to the dicamba salt | % control, 280 g/ha, Hemp sesbania (hemp sesbania): 95% | % control, 420 g/ha, Hemp sesbania (hemp sesbania): 98% | post-emergent control of morning glory compared with the dicamba salt, in words (morning glory): equivalent to the dicamba salt | % control, 280 g/ha, Morning glory (morning glory): 100% | % control, 420 g/ha, Morning glory (morning glory): 98% | post-emergent control of velvetleaf compared with the dicamba salt, in words (velvetleaf [3]): equivalent to the dicamba salt | % control, 280 g/ha, Velvetleaf (velvetleaf [3]): 86% | % control, 420 g/ha, Velvetleaf (velvetleaf [3]): 92% | % Control of velvetleaf, 140 g/ha (velvetleaf [4]; 140 g dicamba equivalent per hectare): 46% | % Control of velvetleaf, 280 g/ha (velvetleaf [4]; 280 g dicamba equivalent per hectare): 60% | % Control of velvetleaf, 420 g/ha (velvetleaf [4]; 420 g dicamba equivalent per hectare): 75% | % Control of velvetleaf, 560 g/ha (velvetleaf [4]; 560 g dicamba equivalent per hectare): 73% | % control, 0.25 lb/ac (0.28 kg/hectare) (Euphorbia species): 72% | % control, 0.50 lb/ac (0.56 kg/hectare) (Euphorbia species): 78% | Conversion to Dicamba, Dark, Day 0 ([5]; amber (dark) bottle): 7% | Conversion to Dicamba, Dark, Day 1 ([5]; amber (dark) bottle): 8% | Conversion to Dicamba, Dark, Day 2 ([5]; amber (dark) bottle): 8% | Conversion to Dicamba, Dark, Day 3 ([5]; amber (dark) bottle): 8% | Conversion to Dicamba, Dark, Day 4 ([5]; amber (dark) bottle): 7% | Conversion to Dicamba, Dark, Day 7 ([5]; amber (dark) bottle): 8% | Conversion to dicamba, Dark, Day 10 ([5]; amber (dark) bottle, Day 10): 8% | Conversion to Dicamba, Dark, Day 14 ([5]; amber (dark) bottle): 8% | Conversion to Dicamba, Dark, Day 21 ([5]; amber (dark) bottle, Day 21): 8% | Conversion to Dicamba, Dark, Day 28 ([5]; amber (dark) bottle, Day 28): 8% | Conversion to Dicamba, Light, Day 0 ([5]; quartz tube, 14-hour day): 7% | Conversion to Dicamba, Light, Day 1 ([5]; quartz tube, 14-hour day): 13% | Conversion to Dicamba, Light, Day 2 ([5]; quartz tube, 14-hour day): 16% | Conversion to Dicamba, Light, Day 3 ([5]; quartz tube, 14-hour day): 18% | Conversion to Dicamba, Light, Day 4 ([5]; quartz tube, 14-hour day): 21% | Conversion to Dicamba, Light, Day 7 ([5]; quartz tube, 14-hour day): 29% | Conversion to dicamba, Light, Day 10 ([5]; quartz tube, 14-hour day, Day 10): 37% | Conversion to Dicamba, Light, Day 14 ([5]; quartz tube, 14-hour day): 54% | Conversion to Dicamba, Light, Day 21 ([5]; quartz tube, 14-hour day, Day 21): 75% | Conversion to Dicamba, Light, Day 28 ([5]; quartz tube, 14-hour day, Day 28): 107%

COc1c(Cl)ccc(Cl)c1C(=O)Oc1cnc2ccccc2n1 [Ester 13a, 2-quinoxalinol ester of dicamba]
Dark Control % dicamba [1]: 11% | Conversion to dicamba, 1 day [1, 6]: 28% | Conversion to dicamba, 2 days [1, 6]: 35% | Conversion to dicamba, 3 days [1, 6]: 43% | Conversion to dicamba, 5 days [1, 6]: 48% | Conversion to dicamba, 7 days [1, 6]: 61% | Conversion to dicamba, 11 days ([1]; simulated sunlight 14 hours per day, 35° C., 11 days): 66% | Conversion to dicamba, 15 days ([1]; simulated sunlight 14 hours per day, 35° C., 15 days): 68% | control of a number of broadleaf weeds in field testing, in words (broadleaf weeds): proven effective | % Injury [2]: 18% | Growth Stage [2]: 8 | post-emergent control of hemp sesbania compared with the dicamba salt, in words (hemp sesbania): equivalent to the dicamba salt | % control, 280 g/ha, Hemp sesbania (hemp sesbania): 95% | % control, 420 g/ha, Hemp sesbania (hemp sesbania): 98% | post-emergent control of morning glory compared with the dicamba salt, in words (morning glory): equivalent to the dicamba salt | % control, 280 g/ha, Morning glory (morning glory): 100% | % control, 420 g/ha, Morning glory (morning glory): 100% | post-emergent control of velvetleaf compared with the dicamba salt, in words (velvetleaf [3]): nearly equivalent to the dicamba salt | % control, 280 g/ha, Velvetleaf (velvetleaf [3]): 72% | % control, 420 g/ha, Velvetleaf (velvetleaf [3]): 84% | % control, 0.25 lb/ac (0.28 kg/hectare) (Euphorbia species): 46% | % control, 0.50 lb/ac (0.56 kg/hectare) (Euphorbia species): 55% | Conversion to Dicamba, Dark, Day 0 ([5]; amber (dark) bottle): 8% | Conversion to Dicamba, Dark, Day 1 ([5]; amber (dark) bottle): 7% | Conversion to Dicamba, Dark, Day 2 ([5]; amber (dark) bottle): 7% | Conversion to Dicamba, Dark, Day 3 ([5]; amber (dark) bottle): 8% | Conversion to Dicamba, Dark, Day 4 ([5]; amber (dark) bottle): 8% | Conversion to Dicamba, Dark, Day 7 ([5]; amber (dark) bottle): 9% | Conversion to dicamba, Dark, Day 11 ([5]; amber (dark) bottle, Day 11): 11% | Conversion to Dicamba, Dark, Day 14 ([5]; amber (dark) bottle): 12% | Conversion to Dicamba, Light, Day 0 ([5]; quartz tube, 14-hour day): 8% | Conversion to Dicamba, Light, Day 1 ([5]; quartz tube, 14-hour day): 9% | Conversion to Dicamba, Light, Day 2 ([5]; quartz tube, 14-hour day): 12% | Conversion to Dicamba, Light, Day 3 ([5]; quartz tube, 14-hour day): 13% | Conversion to Dicamba, Light, Day 4 ([5]; quartz tube, 14-hour day): 13% | Conversion to Dicamba, Light, Day 7 ([5]; quartz tube, 14-hour day): 15% | Conversion to dicamba, Light, Day 11 ([5]; quartz tube, 14-hour day, Day 11): 19% | Conversion to Dicamba, Light, Day 14 ([5]; quartz tube, 14-hour day): 20%
